Results on three compounds are retold here after ChEMBL document CHEMBL1201862, “PubChem BioAssay data set” (2004).

Structures are written as SMILES.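 Values below derive from 48-hour exposures of cells grown in 96-well plates, with endpoints linearly interpolated between the two concentrations bracketing the appropriate inhibition level. Here, GI50 denotes the concentration required for 50% inhibition of growth.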 Activity calls are given as the source filed them. Rule as the data show it: active = GI50 up to about 1.1 µM and inactive = higher.

Common to all, as to assay: growth of human tumour cells (NCI), 48 h
In experiment [1] the test system is SK-MEL-2.
Experiment [2] relates to RXF 393.
Experiment [3] deals with HOP-92.
In experiment [4] the test system is CCRF-CEM.
The subject of experiment [5] is CAKI-1.
For experiment [6], the system named is SR.
The test system of experiment [7] is RPMI-8226.
The test system of experiment [8] is HCC 2998.
The test system of experiment [9] is NCI-H460.
The subject of experiment [10] is A549.
For experiment [11], the system named is EKVX.
For experiment [12], the system named is HOP-62.
The test system of experiment [13] is OVCAR-5.
Experiment [14] has as its system SK-MEL-28.
The subject of experiment [15] is OVCAR-8.
The subject of experiment [16] is MCF7.
The subject of experiment [17] is NCI-H23.
Experiment [18] concerns NCI-H522.
Experiment [19] concerns IGROV-1.
Experiment [20] relates to HCT-116.

Take `C#CCCCC(=C)C[C@H](OCc1ccccc1)[C@H]1OC(=O)[C@@H]1C`: the GI50 in experiment [1] was > 100 µM (inactive); in experiment [2], > 100 µM (inactive); in [3], 37.6 µM (inactive); in [4] it was > 100 µM (inactive); in experiment [5], 14.9 µM (inactive); in experiment [6], 44.5 µM (inactive). Moreover, the GI50 is 11.5 µM (inactive) in experiment [7]; > 100 µM (inactive) in [8]; > 100 µM (inactive) in experiment [9]; 56.4 µM (inactive) in [10]; > 100 µM (inactive) in [11]; > 100 µM (inactive) in [12]. Besides, the GI50 in experiment [13] is > 100 µM (inactive); in experiment [14] it was > 100 µM (inactive); in [15], 31.8 µM (inactive); in experiment [16] it was 37.2 µM (inactive); in experiment [17], 36 µM (inactive).

As for `Nc1ccc(OCC(O)N2C(=O)c3ccccc3C2=O)cc1` (stereo not drawn), the GI50 in experiment [18] was > 100 µM (inactive); in [4], > 100 µM (inactive); in experiment [19] it was > 100 µM (inactive); in experiment [5], < 0.01 µM (active); in experiment [6], > 10 µM (inactive); in experiment [7] it was > 100 µM (inactive). In addition, the GI50 in [8], in experiment [9], in experiment [10], in experiment [11], in experiment [12] and in experiment [13] was > 100 µM (inactive) throughout. The GI50 in [14], in [20], in experiment [15] and in experiment [16] was > 100 µM (inactive) each time.

Regarding `CO[C@@]12[C@H](COC(N)=O)C3=C(C(=O)C(C)=C(N)C3=O)N1C[C@@H]1N[C@@H]12` [MITOMYCIN], the GI50 in experiment [1] is 1.65 µM (inactive); in experiment [2], 2.01 µM (inactive); in experiment [3] it was 3.49 µM (inactive); in experiment [18], 0.667 µM (active); in [4] it was 0.229 µM (active); in [19], 2.9 µM (inactive). For the same compound, the GI50 in [6] was 0.122 µM (active); in experiment [7], 2.4 µM (inactive); in [8] it was 0.614 µM (active); in [11], 4.62 µM (inactive); in [13] it was 1.36 µM (inactive); in [14], 1.75 µM (inactive). Moreover, the GI50 in experiment [20] was 0.701 µM (active); in experiment [15], 1.11 µM (active); in experiment [16] it was 0.148 µM (active).
